The assay has as its target recombinant Mcl-1 (residues 172-327) (Homo sapiens (Human), UniProt Q07820). The experiment in a line: Fluorescence polarization anisotropy competition assay (FITC-Bak or FITC-Bim BH3 peptide) with Mcl-1. Type of assay: binding. Conditions: Table 2, FITC-Bak or FITC-Bim peptide competition, Ki converted from IC50, read-out: Ki for Inhibition of Mcl-1.

The structures appear in SMILES notation. Like-named read-outs stand apart in the source and are kept apart here. Where only a bound is given, the exact number is not on record here.

Chain of recombinant Mcl-1 (residues 172-327) (Q07820 172-327): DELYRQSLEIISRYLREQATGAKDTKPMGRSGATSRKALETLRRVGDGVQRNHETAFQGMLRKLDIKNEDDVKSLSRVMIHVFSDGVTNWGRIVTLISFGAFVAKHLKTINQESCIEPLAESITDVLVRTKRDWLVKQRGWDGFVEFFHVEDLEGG

In the case of `Cc1cc(OCCCc2c(C(=O)N(C)Cc3ccc(C(=O)O)o3)n(C)c3c(-c4c(C)nn(C)c4C)cccc23)cc(C)c1Cl` [I-269, 5-((3-(3-(4-chloro-3,5-dimethylphenoxy)propyl)-N,1-dimethyl-7-(1,3,5-trimethyl-1H-pyrazol-4-yl)-1H-indole-2-carboxamido)methyl)furan-2-carboxylic acid], the inhibition constant (Ki) (Ki bins given in nM) is 101 to 299 nM.

Turning to `CC[C@H](C)[C@H](NC(=O)c1ccc(CNC(=O)c2[nH]c3c(-c4c(C)nn(C)c4C)cccc3c2CCCOc2cc(C)c(Cl)c(C)c2)o1)C(=O)O` [I-270, (5-((3-(3-(4-chloro-3,5-dimethylphenoxy)propyl)-7-(1,3,5-trimethyl-1H-pyrazol-4-yl)-1H-indole-2-carboxamido)methyl)furan-2-carbonyl)-L-isoleucine], the inhibition constant (Ki) (Ki bins given in nM) is below 50 nM.

For the molecule `Cc1cc(OCCCc2c(C(=O)NCc3ccc(C(=O)N[C@@H](Cc4ccccc4)C(=O)O)o3)[nH]c3c(-c4c(C)nn(C)c4C)cccc23)cc(C)c1Cl` [I-271, (5-((3-(3-(4-chloro-3,5-dimethylphenoxy)propyl)-7-(1,3,5-trimethyl-1H-pyrazol-4-yl)-1H-indole-2-carboxamido)methyl)furan-2-carbonyl)-L-phenylalanine], the inhibition constant (Ki) (Ki bins given in nM) is below 50 nM.

For `Cc1cc(OCCCc2c(C(=O)NCc3cc(C(=O)O)c(C)o3)[nH]c3c(-c4c(C)nn(C)c4C)cccc23)cc(C)c1Cl` [I-273, 5-((3-(3-(4-chloro-3,5-dimethylphenoxy)propyl)-7-(1,3,5-trimethyl-1H-pyrazol-4-yl)-1H-indole-2-carboxamido)methyl)-2-methylfuran-3-carboxylic acid], under “Ki bins given in nM”, the inhibition constant (Ki) was below 50 nM.

Turning to `Cc1cc(OCCCc2c(C(=O)N(C)Cc3cc(C(=O)O)c(C)o3)n(C)c3c(-c4c(C)nn(C)c4C)cccc23)cc(C)c1Cl` [I-274, 5-((3-(3-(4-chloro-3,5-dimethylphenoxy)propyl)-N,1-dimethyl-7-(1,3,5-trimethyl-1H-pyrazol-4-yl)-1H-indole-2-carboxamido)methyl)-2-methylfuran-3-carboxylic acid], for the setting “Ki bins given in nM”, the Ki lay within 101 to 299 nM.

For `Cc1cc(OCCCc2c(C(=O)NCc3cc(C(=O)NCc4ccccc4)c(C)o3)[nH]c3c(-c4c(C)nn(C)c4C)cccc23)cc(C)c1Cl` [I-275, N-((4-(benzylcarbamoyl)-5-methylfuran-2-yl)methyl)-3-(3-(4-chloro-3,5-dimethylphenoxy)propyl)-7-(1,3,5-trimethyl-1H-pyrazol-4-yl)-1H-indole-2-carboxamide], the Ki (Ki bins given in μM) lay within 1000 to 9990 nM.

In the case of `Cc1cc(OCCCc2c(C(=O)NCc3cc(C(=O)NC4Cc5ccccc5C4)cc(NC4Cc5ccccc5C4)n3)[nH]c3c(-c4c(C)nn(C)c4C)cccc23)cc(C)c1Cl` [I-278, 3-(3-(4-chloro-3,5-dimethylphenoxy)propyl)-N-((6-((2,3-dihydro-1H-inden-2-yl)amino)-4-((2,3-dihydro-1H-inden-2-yl)carbamoyl)pyridin-2-yl)methyl)-7-(1,3,5-trimethyl-1H-pyrazol-4-yl)-1H-indole-2-carboxamide], the inhibition constant Ki (Ki bins given in μM) is 1000 to 9990 nM.

With `Cc1cc(OCCCc2c(C(=O)NCc3cc(C(=O)O)cc(N4CCc5ccccc5C4)n3)[nH]c3c(-c4c(C)nn(C)c4C)c(Cl)ccc23)cc(C)c1Cl` [I-282, 2-((6-chloro-3-(3-(4-chloro-3,5-dimethylphenoxy)propyl)-7-(1,3,5-trimethyl-1H-pyrazol-4-yl)-1H-indole-2-carboxamido)methyl)-6-(3,4-dihydroisoquinolin-2(1H)-yl)isonicotinic acid], the Ki (Ki bins given in nM) was below 50 nM.

As to `Cc1cc(OCCCc2c(C(=O)NCc3cc(C(=O)O)cc(NCCC(C)C)n3)[nH]c3c(-c4c(C)nn(C)c4C)c(Cl)ccc23)cc(C)c1Cl` [I-283, 2-((6-chloro-3-(3-(4-chloro-3,5-dimethylphenoxy)propyl)-7-(1,3,5-trimethyl-1H-pyrazol-4-yl)-1H-indole-2-carboxamido)methyl)-6-(isopentylamino)isonicotinic acid], where the note is “Ki bins given in nM”, the inhibition constant (Ki) was below 50 nM.

Turning to `Cc1cc(OCCCc2c(C(=O)NCc3cc(C(=O)O)cc(N4CCN(C(=O)CC(C)C)CC4)n3)[nH]c3c(-c4c(C)nn(C)c4C)c(Cl)ccc23)cc(C)c1Cl` [I-284, 2-((6-chloro-3-(3-(4-chloro-3,5-dimethylphenoxy)propyl)-7-(1,3,5-trimethyl-1H-pyrazol-4-yl)-1H-indole-2-carboxamido)methyl)-6-(4-(3-methylbutanoyl)piperazin-1-yl)isonicotinic acid], under “Ki bins given in nM”, the Ki is below 50 nM.

`Cc1cc(OCCCc2c(C(=O)NCc3cc(C(=O)O)cc(N4CCN(CCC(C)C)CC4)n3)[nH]c3c(-c4c(C)nn(C)c4C)c(Cl)ccc23)cc(C)c1Cl` [I-285, 2-((6-chloro-3-(3-(4-chloro-3,5-dimethylphenoxy)propyl)-7-(1,3,5-trimethyl-1H-pyrazol-4-yl)-1H-indole-2-carboxamido)methyl)-6-(4-isopentylpiperazin-1-yl)isonicotinic acid]: the inhibitory constant (Ki) (Ki bins given in nM) is below 50 nM.

Regarding `Cc1cc(OCCCc2c(C(=O)NCC(=O)O)[nH]c3c(-c4c(C)nn(C)c4C)cccc23)cc(C)c1Cl` [I-286, (3-(3-(4-chloro-3,5-dimethylphenoxy)propyl)-7-(1,3,5-trimethyl-1H-pyrazol-4-yl)-1H-indole-2-carbonyl)glycine], the inhibition constant Ki (Ki bins given in nM) is below 50 nM.

With `COC(=O)[C@H](Cc1ccccc1)NC(=O)CNC(=O)c1[nH]c2c(-c3c(C)nn(C)c3C)cccc2c1CCCOc1cc(C)c(Cl)c(C)c1` [I-288, methyl (3-(3-(4-chloro-3,5-dimethylphenoxy)propyl)-7-(1,3,5-trimethyl-1H-pyrazol-4-yl)-1H-indole-2-carbonyl)glycyl-L-phenylalaninate], the inhibition constant Ki (Ki bins given in μM) is 1000 to 9990 nM.

For the molecule `COC(=O)[C@H](CC(C)C)NC(=O)CNC(=O)c1[nH]c2c(-c3c(C)nn(C)c3C)cccc2c1CCCOc1cc(C)c(Cl)c(C)c1` [I-289, methyl (3-(3-(4-chloro-3,5-dimethylphenoxy)propyl)-7-(1,3,5-trimethyl-1H-pyrazol-4-yl)-1H-indole-2-carbonyl)glycyl-L-leucinate], the inhibition constant Ki (Ki bins given in μM) lay in the range of 10000 to 50000 nM.

For `Cc1cc(OCCCc2c(C(=O)NCC(=O)NCC(=O)O)[nH]c3c(-c4c(C)nn(C)c4C)cccc23)cc(C)c1Cl` [I-290, (3-(3-(4-chloro-3,5-dimethylphenoxy)propyl)-7-(1,3,5-trimethyl-1H-pyrazol-4-yl)-1H-indole-2-carbonyl)glycylglycine], the Ki (Ki bins given in nM) was below 50 nM.

As to `Cc1cc(OCCCc2c(C(=O)NCC(=O)N[C@@H](Cc3ccccc3)C(=O)O)[nH]c3c(-c4c(C)nn(C)c4C)cccc23)cc(C)c1Cl` [I-291, (3-(3-(4-chloro-3,5-dimethylphenoxy)propyl)-7-(1,3,5-trimethyl-1H-pyrazol-4-yl)-1H-indole-2-carbonyl)glycyl-L-phenylalanine], the inhibition constant (Ki) (Ki bins given in nM) was below 50 nM.

Consider `Cc1cc(OCCCc2c(C(=O)NCC(=O)N[C@@H](CC(C)C)C(=O)O)[nH]c3c(-c4c(C)nn(C)c4C)cccc23)cc(C)c1Cl` [I-292, (3-(3-(4-chloro-3,5-dimethylphenoxy)propyl)-7-(1,3,5-trimethyl-1H-pyrazol-4-yl)-1H-indole-2-carbonyl)glycyl-L-leucine], for which the Ki (Ki bins given in nM) was below 50 nM.

Take `Cc1cc(OCCCc2c(C(=O)NCc3cc(C(=O)O)c(CN4CCc5ccccc5C4)o3)[nH]c3c(-c4c(C)nn(C)c4C)cccc23)cc(C)c1Cl` [I-293, 5-((3-(3-(4-chloro-3,5-dimethylphenoxy)propyl)-7-(1,3,5-trimethyl-1H-pyrazol-4-yl)-1H-indole-2-carboxamido)methyl)-2-((3,4-dihydroisoquinolin-2(1H)-yl)methyl)furan-3-carboxylic acid]: the Ki (Ki bins given in nM) is below 50 nM.

Consider `Cc1cc(OCCCc2c3n(c4c(-c5c(C)nn(C)c5C)c(Cl)ccc24)CCCN(CCc2ccccc2C(=O)O)C3=O)cc(C)c1Cl` [I-294, 2-(2-(8-chloro-11-(3-(4-chloro-3,5-dimethylphenoxy)propyl)-1-oxo-7-(1,3,5-trimethyl-1H-pyrazol-4-yl)-4,5-dihydro-1H-[1,4]diazepino[1,2-a]indol-2(3H)-yl)ethyl)benzoic acid], for which the inhibition constant (Ki) (Ki bins given in nM) is below 50 nM.

With `Cc1cc(OCCCc2c3n(c4c(-c5c(C)nn(CC(=O)O)c5C)c(Cl)ccc24)CCCNC3=O)cc(C)c1Cl` [I-295, 2-(4-(8-chloro-11-(3-(4-chloro-3,5-dimethylphenoxy)propyl)-1-oxo-2,3,4,5-tetrahydro-1H-[1,4]diazepino[1,2-a]indol-7-yl)-3,5-dimethyl-1H-pyrazol-1-yl)acetic acid], the inhibition constant (Ki) (Ki bins given in nM) is below 50 nM.

On to `Cc1cc(OCCCc2c3n(c4c(-c5c(C)nn(C)c5C)cccc24)CCCN(Cc2cc(Br)cc(C(=O)O)c2)C3=O)cc(C)c1Cl` [I-296, 3-bromo-5-((11-(3-(4-chloro-3,5-dimethylphenoxy)propyl)-1-oxo-7-(1,3,5-trimethyl-1H-pyrazol-4-yl)-4,5-dihydro-1H-[1,4]diazepino[1,2-a]indol-2(3H)-yl)methyl)benzoic acid], for which the Ki (Ki bins given in nM) lay within 51 to 100 nM.

As to `Cc1cc(CN2CCCn3c(c(CCCOc4cc(C)c(Cl)c(C)c4)c4ccc(Cl)c(-c5c(C)nn(C)c5C)c43)C2=O)cc(C(=O)O)c1` [I-297, 3-((8-chloro-11-(3-(4-chloro-3,5-dimethylphenoxy)propyl)-1-oxo-7-(1,3,5-trimethyl-1H-pyrazol-4-yl)-4,5-dihydro-1H-[1,4]diazepino[1,2-a]indol-2(3H)-yl)methyl)-5-methylbenzoic acid], the inhibitory constant (Ki) (Ki bins given in nM) is 51 to 100 nM.

`Cc1cc(OCCCc2c3n(c4c(-c5c(C)nn(C)c5C)c(Cl)ccc24)CCCN(Cc2cc(C(=O)O)cc(Cl)n2)C3=O)cc(C)c1Cl` [I-298, 2-chloro-6-((8-chloro-1-(3-(4-chloro-3,5-dimethylphenoxy)propyl)-1-oxo-7-(1,3,5-trimethyl-1H-pyrazol-4-yl)-4,5-dihydro-1H-[1,4]diazepino[1,2-a]indol-2(3H)-yl)methyl)isonicotinic acid]: under “Ki bins given in nM”, the Ki was below 50 nM.

As to `Cc1cc(OCCCc2c3n(c4c(-c5c(C)nn(C)c5C)c(Cl)ccc24)CCCN(Cc2cc(Br)cc(C(=O)O)c2)C3=O)cc(C)c1Cl` [I-299, 3-bromo-5-((8-chloro-11-(3-(4-chloro-3,5-dimethylphenoxy)propyl)-1-oxo-7-(1,3,5-trimethyl-1H-pyrazol-4-yl)-4,5-dihydro-1H-[1,4]diazepino[1,2-a]indol-2(3H)-yl)methyl)benzoic acid], under “Ki bins given in nM”, the inhibition constant (Ki) was below 50 nM.

In general, Ki refers to the dissociation constant of the complex between target and ligand, obtained from inhibition or displacement.
